Laboratory results from patent US20060121499A1, “Methods of identifying glucocorticoids without the detrimental side effects of bone loss” (priority 2004, published 2006).
Starred links: 1 amine or outer side, 2 acyl side, 3 side chain; linkers in the order of their positions; H or OH if unused. Positions of bridges follow the written chain, without caps; N, C: chain ends. Non-standard residues stand in square brackets, D forms with d. Residues, ends and D or L forms follow the SMILES beside them. Chains are numbered I, II in the order given. No end group written: not given here. Actinocin(9to1) = Cc1c2oc3c(C)ccc(C(=O)[*:1])c3nc-2c(C(=O)[*:2])c(N)c1=O; NMeV = CN[C@H](C(=O)O)C(C)C; Sar = CNCC(=O)O

Legend:
MLO-Y4 osteocytic cells [1] = assay: Quantification of apoptotic cells (nuclear morphology, nGFP) in MLO-Y4 osteocytic cells; type: cell-based, murine; conditions: for effect on dexamethasone (glucocorticoid)-induced apoptosis: inhibitor added 30 minute before dexamethasone 10^−6 M, 6 hour treatment
Procedure: The murine long bone-derived osteocytic cell line MLO-Y4 was kindly provided by Dr. Lynda Bonewald (University of Missouri-Kansas City, Kansas City, Mo.). Cells were cultured in phenol red-free AMEM supplemented with 2.5% FBS, 2.5% bovine calf serum, 100 U/ml penicillin and 100 μg/ml streptomycin. Cells were plated at 1-2×10^4 cells/cm^2 on collagen type I (Sigma Chemical Co., St. Louis, Mo.) coated plates, as described previously (Kato,Y. et al., J. Bone Min.Res., 12:2014-2023 (1997)).
MLO-Y4 cells stably expressing nuclear green fluorescent protein (nGFP) were obtained using the retroviral vector containing the nGFP, provided by Dr. Charles O'Brien (University of Arkansas for Medical Sciences, Little Rock, Ark.). The SV40 large T antigen nuclear localization sequence (Kalderon,D., et al., Cell, 39:499-509 (1984)) was attached to the carboxy-terminus of the cDNA construct encoding nGFP and subcloned into the pLXSN retroviral vector (Clontech, Palo Alto, Calif.). The plasmid harboring the retroviral construct was transiently transfected into the packaging cell line Phoenix Eco (Grignani, F. et al., Cancer Res. 58:14-19 (1998)) using SuperFect (Qiagen, Santa Clarita, Calif.). Supernatants containing retroviral particles were collected 24-48 h after transfection, and used immediately to infect cell cultures. Subconfluent MLO-Y4 osteocytic cells were exposed to viral supernatants in the presence of 8 μg/ml polybrene for 8 h and then incubated in fresh culture medium for 16 hours. Subsequently, cells were exposed to the supernatants containing the viral particles once more before being trypsinized and plated at low density. Transduced cells were selected by culturing them in the presence of 400 μg/ml of geneticin (G418, Sigma Chemical Co., St. Louis, Mo.) for three weeks (Plotkin,L. I., et al., J. Clin. Invest. 104:1363-1374 (1999)).
Apoptosis was induced in semiconfluent cultures by treatment for the indicated times with the glucocorticoid, dexamethasone (10^−6 M, Sigma Chemical Co., St. Louis, Mo.) or with etoposide (50 μM, Sigma Chemical Co., St. Louis, Mo.). Inhibitors were added 30 minute before the addition of the pro-apoptotic agent at the following concentrations: the RNA synthesis inhibitor actinomycin D (2×10^−6M, Sigma Chemical Co., St. Louis, Mo.), the protein synthesis inhibitor cycloheximide (10^−6 M, Sigma Chemical Co., St. Louis, Mo.), the MEK inhibitor PD98059 (50 μM, New England Biolabs, Beverly, Mass.), the Src inhibitor PP1 (5 μM, BioSource International, Camarillo, Calif.), the p38 inhibitor SB203580 (10^−4 M, Sigma Chemical Co., St. Louis, Mo.), the P13K inhibitor wortmannin (30 nM, Sigma Chemical Co., St. Louis, Mo.), the JNK inhibitor SP600125 (3 μM, EMD Biosciences, Inc, San Diego, Calif.) or the caspase-3 inhibitor Asp-Glu-Val-Asp-aldehide (DEVD-CHO) (50 nM, Biomol Research Lab., Inc., Plymouth Meeting, Pa.).
Following the treatment with the pro-apoptotic agents, cells were fixed for 8 minutes with neutral buffer formalin and stored at 4° C. until analyzed.
Cells were transiently transfected using Lipofectamine Plus (Gibco BRL, Gaithersburg, Md.) as previously described (Plotkin,L. I. et. al., J. Biol.Chem. 277:8648-8657 (2002) and Kousteni, S. et al., Cell, 104:719-730 (2001)). Briefly, cells were cultured in the absence of serum or antibiotics for 3 hours in the presence of 20 μl/ml Plus reagent and 10 μl/ml Lipofectamine together with […] of each of the following DNA constructs: pCDNA3 vector (obtained from Clontech, Palo Alto, Calif.), wild type FAK (provided by Dr. Sandro Aruffo, Bristol-Myers Squibb Pharmaceutical Research Institute, Princeton, N.J. (Chan,P. Y. et al., Methods Mol Biol. 2000.;99.(1.):109.-25. 269:20567-20574 (1994)), or wild type Pyk2, kinase deficient Pyk2 mutant or autophosphorylation deficient Pyk2 mutant (provided by Dr. Wen-Cheng Xiong, University of Alabama at Birmingham, Birmingham, Ala. (Xiong,W. and Parsons,J. T., J Cell Biol 139:529-53(1997)).

MLO-Y4 osteocytic cells [2] = assay: Quantification of cell detachment (number of cytoplasmic processes) in MLO-Y4 cells; type: cell-based, murine
Procedure: Apoptosis was induced in semiconfluent cultures by treatment for the indicated times with the glucocorticoid, dexamethasone (10^−6 M, Sigma Chemical Co., St. Louis, Mo.) or with etoposide (50 μM, Sigma Chemical Co., St. Louis, Mo.). […]
The effect of dexamethasone or etoposide on cell detachment was quantified by enumerating the number of cytoplasmic processes of MLO-Y4 cells expressing GFP. […]
Apoptosis and cell attachment were determined in the same cultures by examining nuclear morphology (FIG. 2A) and quantifying the number of cytoplasmic processes (FIG. 2B), respectively. Apoptosis was determined by examining nuclear fragmentation and chromatin condensation and cell detachment by quantifying the number of cytoplasmic processes in the same cells. […]

Compound | effect on dexamethasone (glucocorticoid)-induced apoptosis (MLO-Y4 osteocytic cells [1]) | further results
CC(=O)OCOC(=O)CN(CC(=O)OCOC(C)=O)c1ccccc1OCCOc1ccccc1N(CC(=O)OCOC(C)=O)CC(=O)OCOC(C)=O [BAPTA-AM] | abolished | –
Cc1c2oc3c(C)ccc(C(=O)N[C@@H]4C(=O)N[C@H](C(C)C)C(=O)N5CCC[C@H]5C(=O)N(C)CC(=O)N(C)[C@@H](C(C)C)C(=O)O[C@@H]4C)c3nc-2c(C(=O)N[C@@H]2C(=O)N[C@H](C(C)C)C(=O)N3CCC[C@H]3C(=O)N(C)CC(=O)N(C)[C@@H](C(C)C)C(=O)O[C@@H]2C)c(N)c1=O [actinomycin D] (I: T[dV]P[Sar][NMeV] / II: T[dV]P[Sar][NMeV]; ester I:1-I:C, II:1-II:C; linker I:N-II:N via Actinocin(9to1)) | dexamethasone was able to induce apoptosis | –
C[C@@H]1C[C@@H]([C@H](O)CC2CC(=O)NC(=O)C2)C(=O)[C@@H](C)C1 [cycloheximide] | dexamethasone was able to induce apoptosis | –
COc1cc([C@@H]2c3cc4c(cc3[C@@H](O[C@@H]3O[C@@H]5CO[C@@H](C)O[C@H]5[C@H](O)[C@H]3O)[C@H]3COC(=O)[C@H]23)OCO4)cc(OC)c1O [etoposide] | – | apoptosis (nuclear fragmentation and chromatin condensation) (MLO-Y4 osteocytic cells [1]; 6 hours of treatment, dexamethasone 10^−6 M, etoposide 50 μM): induced apoptosis; apoptosis in cells overexpressing FAK (MLO-Y4 osteocytic cells [1]; transient transfection wild type FAK, 6 hours): not protected; apoptosis in cells overexpressing Pyk2 (MLO-Y4 osteocytic cells [1]; transient transfection wild type Pyk2, 6 hours): remained responsive; apoptosis in cells transfected with wild type Pyk2 vector (MLO-Y4 osteocytic cells [1]; transient transfection, co-transfected nGFP, 6 hours): exhibited apoptosis; number of cells exhibiting three or less cytoplasmic processes (cell attachment) (MLO-Y4 osteocytic cells [2]; dexamethasone: as early as after 1 h, etoposide: duration of the experiment): did not exhibit changes in cell attachment
[Gd] [gadolinium] | abolished | –
C/C=C(/C)C(=O)O[C@H]1C(C)=C2[C@H]([C@@H]1OC(=O)CCCCCCC)[C@@](C)(OC(C)=O)C[C@H](OC(=O)CCC)[C@@]1(O)[C@H]2OC(=O)[C@@]1(C)O [thapsigargin] | had no effect | –
Asp-Glu-Val-Asp-aldehide (DEVD-aldehyde) | abolished | effect on dexamethasone-induced changes in cell attachment (MLO-Y4 osteocytic cells [2]; inhibitor added 30 minute before dexamethasone 10^−6 M): did not reverse
